In patent publication US20180051346A1, “METHODS AND MEANS FOR SUBTYPING INVASIVE LOBULAR BREAST CANCER” (Stichting Het Nederlands Kanker Instituut-Antoni van …, priority 2015, published 2018):

system: ILC cell lines; experiment: Drug sensitivity on the Sanger cell line panel, differential response between IR and HR subtype cell lines; assay type: cell-based; settings: IR subtype cell lines (10) vs HR subtype cell lines (5); two-sided t-test between the AUC of the dose-response curves; Sanger response data (Garnett et al., 2012)
Method: Drug sensitivity was assessed on the Sanger cell line panel (internal version 17). We used the cell lines common in our ILC cell line panel and in the Sanger cell line panel. We used cell line AU565 instead of SK-BR-3, which is derived from the same patient. Among the 262 drugs, we focused our assessment on 88 agents that had measurement in at least three cell lines per subtype. With this dataset, we performed a two-sided t-test between the AUC of the dose-response curves of the cell lines in the two subtypes, correcting for multiple testing with the Benjamini-Hochberg method.
To identify candidate therapeutic options, we profiled a set of 15 ILC cell lines as in vitro models. We used their gene expression profiles to map them to the IR (10 cell lines) and HR (5 cell lines). We then used the response data for 88 drugs on a subset of these cell lines, as provided by the Wellcome Trust Sanger Institute (Garnett et al., 2012. Nature 483: 570-575), to test for differential drug sensitivity between the subtypes. We retained six drugs at an FDR<0.25 (FIG. 2).

Q: With N.N.[Cl][Pt][Cl] [Cisplatin] as the molecule, how does the “differential drug sensitivity between the subtypes” value read?
A: Its value is “more sensitive”.

Q: For CCc1c2c(nc3ccc(O)cc13)-c1cc3c(c(=O)n1C2)COC(=O)[C@]3(O)CC [SN-38, (+)-(4S)-4,11-diethyl-4,9-dihydroxy-1H-pyrano[3′,4′:6,7]-indolizino[1,2-b]quinoline-3,14(4H,12H)-dione], which “differential drug sensitivity between the subtypes” value is on record?
A: The value was “more sensitive”.

Q: Bleomycin was tested. Which “differential drug sensitivity between the subtypes” value did it give?
A: The value was “more sensitive”.
